# Assay results as given in publication PMC7954447 (Science Advances, 2021).
# Target: human α7 nicotinic ACh receptor (nAChR) (Homo sapiens, UniProt P36544)
# Format: cell-based
# human α7 nicotinic ACh receptor (nAChR), sequence (P36544 23-502): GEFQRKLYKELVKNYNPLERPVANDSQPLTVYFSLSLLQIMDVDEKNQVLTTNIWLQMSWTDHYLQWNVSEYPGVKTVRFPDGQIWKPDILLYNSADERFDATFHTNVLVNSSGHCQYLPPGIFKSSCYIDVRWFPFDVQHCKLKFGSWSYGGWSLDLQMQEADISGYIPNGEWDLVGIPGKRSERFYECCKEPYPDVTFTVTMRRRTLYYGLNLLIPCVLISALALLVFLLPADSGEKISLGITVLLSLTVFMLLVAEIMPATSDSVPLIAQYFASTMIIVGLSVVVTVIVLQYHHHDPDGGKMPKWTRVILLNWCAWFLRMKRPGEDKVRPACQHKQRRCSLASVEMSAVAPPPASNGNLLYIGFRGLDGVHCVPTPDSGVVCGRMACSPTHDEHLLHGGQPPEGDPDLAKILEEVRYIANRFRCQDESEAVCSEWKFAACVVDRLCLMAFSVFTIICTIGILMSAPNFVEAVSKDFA
substance,measurement,value
Conazolium A [compound 1],IC50,24.4 µM
